Experimental data as given in patent publication US20090221666A1, “STILBENE DERIVATIVES AND METHODS OF INHIBITING CANCER CELL GROWTH AND MICROBIAL GROWTH” (priority 2005, published 2009).

Columns and labels:
[1] = test system: P388 lymphocytic leukemia cell line; assay type: cell-based; settings: murine P388 lymphocytic leukemia cell line
Protocol: (§1) Cytotoxicity assays were performed by the sulforhodamine B method, in which inhibition of formation of cellular protein is measured (Ref. 42). The mitotic index of MCF-7 breast cancer cells was determined as described previously (Ref. 27), except that cells were incubated in the presence of drug for 16 h prior to addition of the DNA stain.

[2] = test system: BXPC-3; assay: cells; assay type: cell-based, human
Protocol: as §1

[3] = test system: DU145; assay: cells; assay type: cell-based, human; settings: DU145
Protocol: as §1

[4] = test system: KM20L2; assay: cells; assay type: cell-based, human; settings: KM20L2
Protocol: as §1

[5] = test system: MCF-7; assay: cells; assay type: cell-based, human; settings: MCF-7
Protocol: as §1

[6] = test system: NCI-H460; assay: cells; assay type: cell-based, human
Protocol: as §1

[7] = test system: SF-295; assay: cells; assay type: cell-based, human
Protocol: as §1

[8] = test system: human cancer cell lines and murine P388; assay: cells; assay type: cell-based; settings: mini-panel of human cancer cell lines
Protocol: as §1

[9] = test system: Bovine brain tubulin; assay: Inhibition of tubulin assembly; assay type: biochemical; settings: 1.0 mg/mL (10 μM) tubulin; read-out: Inhibition of tubulin assembly IC50 (μM) ± SD
Protocol: (§2) Bovine brain tubulin was prepared and the tubulin assembly and colchicine binding assays were performed as described previously. In the assembly assay, reaction mixtures contained 1.0 mg/mL (10 μM) tubulin and varying concentrations of potential inhibitors. In the colchicine binding assay reaction mixtures contained 0.1 mg/mL (1.0 μM) tubulin, 5.0 μM [^3H]colchicine, and potential inhibitor as indicated. The vinblastine binding assay was performed as described previously for GTP binding by centrifugal gel filtration, except that a Beckman Allegra 6KR centrifuge equipped with a GH-3.8A swinging bucket rotor was used and the syringe-columns were centrifuged at 2,000 rpm (Ref. 38-41). Reaction mixtures contained 0.5 mg/mL (5.0 μM) tubulin, 5 μM [^3H]vinblastine, potential inhibitor as indicated, 0.5 mM MgCl2, 0.1 M 4-morpholineethanesulfonate (1.0 M stock solution adjusted to pH 6.9 with NaOH, and 4% (v/v) dimethyl sulfoxide. Incubation (30 min) and centrifugal gel filtration were performed at room temperature (20-22° C.).

[10] = test system: Bovine brain tubulin (colchicine site); assay: Inhibition of [3H]colchicine binding to tubulin; settings: 50 μM inhibitor; 1.0 μM tubulin, 5.0 μM [3H]colchicine
Protocol: as §2

[11] = test system: Bovine brain tubulin (vinca domain); assay: Inhibition of [3H]vinblastine binding to tubulin; settings: 5.0 μM tubulin, 5 μM [3H]vinblastine
Protocol: as §2

[12] = test system: MCF-7 breast cancer cells; assay: Inhibition of growth of MCF-7 breast cancer cells (sulforhodamine B); assay type: cell-based, human
Protocol: as §1

[13] = test system: MCF-7 breast cancer cells; assay: Mitotic index of MCF-7 cells; assay type: cell-based, human; settings: 16 h at 10 times the IC50 concentration; without drug 2.9%
Protocol: as §1

SMILES: CC[C@H](C)[C@@H]([C@@H](CC(=O)N1CCC[C@H]1[C@H](OC)[C@@H](C)C(=O)Nc1cc(/C=C\c2cc(OC)c3c(c2)OCO3)ccc1OC)OC)N(C)C(=O)[C@@H](NC(=O)[C@H](C(C)C)N(C)C)C(C)C [Compound 16, 3,4-Methylenedioxy-5,4′-dimethoxy-3′-(Dov-Val-Dil-Dap)-amido-Z-stilbene]
- Leukemia P388 ED50 [1]: <0.01 µg/mL
- Pancreas BXPC-3 GI50 [2]: 0.048 µg/mL
- Prostate DU145 GI50 [3]: 0.032 µg/mL
- Colon KM20L2 GI50 [4]: 0.020 µg/mL
- Breast MCF-7 GI50 [5]: 0.0031 µg/mL
- Lung-NSC NCI-H460 GI50 [6]: 0.033 µg/mL
- CNS SF-295 GI50 [7]: 0.025 µg/mL
- inhibition of mini-panel of human cancer cell lines (in words) [8]: strongly inhibiting
- IC50 [9]: 1.3 ± 0.04 µM
- Inhibition of colchicine binding % Inhibition ± SD [10]: 30 ± 2%
- Inhibition of vinblastine binding % Inhibition ± SD ([11]; 10 μM inhibitor): 48 ± 3%
- Inhibition of vinblastine binding % Inhibition ± SD ([11]; 80 μM inhibitor): 87 ± 2%
- IC50 ([12]; MCF-7, read-out: Inhibition of growth of MCF-7 breast cancer cells IC50 (nM) ± SD): 17 nM
- times as active as hydrochloride 1b, MCF-7 cells ([12]; relative to 1b): ~4 times
- activity as fraction of D-10 (4a), MCF-7 cells ([12]; relative to 4a): 1/200
- Mitotic index of MCF-7 cells % Mitoses [13]: 57%
